The values below are quoted from earlier work in patent US20240074994A1, “COMPOSITION OF CHLORHEXIDINE” (priority 2022, published 2024).

The test system of data set [1] is HSV-1. The following applies: Vero cell monolayers.
Data set [2] deals with HSV-1. As to conditions: 0.2% applied topically onto HSV-1 infected forehead skin of mice.

On to Chlorhexidine, for which, in data set [1], the “cytolytic activity of HSV-1” value is “moderately, but significantly, inhibited” and the “replication of HSV-1” value is given as “moderately, but significantly, inhibited”. For the same substance, in data set [2], the “development of viral lesions” value is “moderately reduced”; the “viral titers in the skin and trigeminal ganglia” value is “moderately reduced”.
